Measurements: PubChem BioAssay (NCI)
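Five concentrations, 48 hours, 96-well plates. GI50 marks 50% less growth. TGI: concentration producing complete growth inhibition.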

Key:
Experiment in all cases: NCI anticancer screen, dose series, 48 h
786-0 renal = test system: 786-0 renal
A498 renal = test system: A498 renal
A549 NSCLC = test system: A549 NSCLC
ACHN renal = test system: ACHN renal
BT-549 breast = test system: BT-549 breast
CAKI-1 renal = test system: CAKI-1 renal
CCRF-CEM leukemia = test system: CCRF-CEM leukemia
COLO 205 colon = test system: COLO 205 colon
DU-145 prostate = test system: DU-145 prostate
EKVX NSCLC = test system: EKVX NSCLC
HCC-2998 colon = test system: HCC-2998 colon
HCT-116 colon = test system: HCT-116 colon
HCT-15 colon = test system: HCT-15 colon
HL-60(TB) leukemia = test system: HL-60(TB) leukemia
HOP-62 NSCLC = test system: HOP-62 NSCLC
HOP-92 NSCLC = test system: HOP-92 NSCLC
HS 578T breast = test system: HS 578T breast
HT29 colon = test system: HT29 colon
IGROV1 ovarian = test system: IGROV1 ovarian
K-562 leukemia = test system: K-562 leukemia
KM12 colon = test system: KM12 colon
M14 melanoma = test system: M14 melanoma
MALME-3M melanoma = test system: MALME-3M melanoma
MCF7 breast = test system: MCF7 breast
MDA-MB-231 breast = test system: MDA-MB-231 breast
MDA-MB-435 = test system: MDA-MB-435
MOLT-4 leukemia = test system: MOLT-4 leukemia
NCI-H226 lung = test system: NCI-H226 lung
NCI-H23 lung = test system: NCI-H23 lung
NCI-H460 lung = test system: NCI-H460 lung
NCI-H522 lung = test system: NCI-H522 lung
NCI/ADR-RES ovarian = test system: NCI/ADR-RES ovarian
OVCAR-4 ovarian = test system: OVCAR-4 ovarian
OVCAR-5 ovarian = test system: OVCAR-5 ovarian
OVCAR-8 ovarian = test system: OVCAR-8 ovarian
PC-3 prostate = test system: PC-3 prostate
RPMI-8226 leukemia = test system: RPMI-8226 leukemia
RXF 393 renal = test system: RXF 393 renal
SF-268 CNS = test system: SF-268 CNS
SF-295 CNS = test system: SF-295 CNS
SF-539 CNS = test system: SF-539 CNS
SK-MEL-2 melanoma = test system: SK-MEL-2 melanoma
SK-MEL-28 melanoma = test system: SK-MEL-28 melanoma
SK-MEL-5 melanoma = test system: SK-MEL-5 melanoma
SK-OV-3 ovarian = test system: SK-OV-3 ovarian
SN12C renal = test system: SN12C renal
SNB-19 CNS = test system: SNB-19 CNS
SNB-75 CNS = test system: SNB-75 CNS
SR leukemia = test system: SR leukemia
SW-620 colon = test system: SW-620 colon
T-47D breast = test system: T-47D breast
TK-10 renal = test system: TK-10 renal
U251 CNS = test system: U251 CNS
UACC-257 melanoma = test system: UACC-257 melanoma
UACC-62 melanoma = test system: UACC-62 melanoma
UO-31 renal = test system: UO-31 renal

O=c1oc2ccc(-c3ccc(F)cc3F)cc2c(=O)n1-c1ccc(F)c(F)c1
GI50 (786-0 renal): 1670 nM | TGI (786-0 renal): > 50000 nM | GI50 (A498 renal): 374 nM | TGI (A498 renal): 1700 nM | GI50 (A549 NSCLC): 1580 nM | TGI (A549 NSCLC): > 50000 nM | GI50 (ACHN renal): 1410 nM | TGI (ACHN renal): 4880 nM | GI50 (BT-549 breast): 1350 nM | TGI (BT-549 breast): 4900 nM | GI50 (CAKI-1 renal): 963 nM | TGI (CAKI-1 renal): 3210 nM | GI50 (CCRF-CEM leukemia): 1470 nM | TGI (CCRF-CEM leukemia): > 50000 nM | GI50 (COLO 205 colon): 8250 nM | TGI (COLO 205 colon): 27100 nM | GI50 (DU-145 prostate): 1750 nM | TGI (DU-145 prostate): > 50000 nM | GI50 (EKVX NSCLC): 1460 nM | TGI (EKVX NSCLC): 7350 nM | GI50 (HCC-2998 colon): 1700 nM | TGI (HCC-2998 colon): 48700 nM | GI50 (HCT-116 colon): 1260 nM | TGI (HCT-116 colon): 5430 nM | GI50 (HCT-15 colon): 1340 nM | TGI (HCT-15 colon): 5240 nM | GI50 (HL-60(TB) leukemia): 1060 nM | TGI (HL-60(TB) leukemia): 3070 nM | GI50 (HOP-62 NSCLC): 1410 nM | TGI (HOP-62 NSCLC): 5940 nM | GI50 (HOP-92 NSCLC): 389 nM | TGI (HOP-92 NSCLC): 2280 nM | GI50 (HS 578T breast): 1570 nM | TGI (HS 578T breast): > 50000 nM | GI50 (HT29 colon): 8900 nM | TGI (HT29 colon): > 50000 nM | GI50 (IGROV1 ovarian): 1700 nM | TGI (IGROV1 ovarian): > 50000 nM | GI50 (K-562 leukemia): 1160 nM | TGI (K-562 leukemia): > 50000 nM | GI50 (KM12 colon): 1560 nM | TGI (KM12 colon): 5260 nM | GI50 (M14 melanoma): 1610 nM | TGI (M14 melanoma): 35500 nM | GI50 (MALME-3M melanoma): 874 nM | TGI (MALME-3M melanoma): 2510 nM | GI50 (MCF7 breast): 1220 nM | TGI (MCF7 breast): > 50000 nM | GI50 (MDA-MB-231 breast): 894 nM | TGI (MDA-MB-231 breast): 2340 nM | GI50 (MDA-MB-435): 1280 nM | TGI (MDA-MB-435): 5460 nM | GI50 (MOLT-4 leukemia): 1480 nM | TGI (MOLT-4 leukemia): 6730 nM | GI50 (NCI-H226 lung): 1410 nM | TGI (NCI-H226 lung): 6240 nM | GI50 (NCI-H23 lung): 936 nM | TGI (NCI-H23 lung): 2970 nM | GI50 (NCI-H460 lung): 1320 nM | TGI (NCI-H460 lung): > 50000 nM | GI50 (NCI-H522 lung): 666 nM | TGI (NCI-H522 lung): 8620 nM | GI50 (NCI/ADR-RES ovarian): 1320 nM | TGI (NCI/ADR-RES ovarian): > 50000 nM | GI50 (OVCAR-4 ovarian): 1350 nM | TGI (OVCAR-4 ovarian): > 50000 nM | GI50 (OVCAR-5 ovarian): 1620 nM | TGI (OVCAR-5 ovarian): > 50000 nM | GI50 (OVCAR-8 ovarian): 1620 nM | TGI (OVCAR-8 ovarian): > 50000 nM | GI50 (PC-3 prostate): 1420 nM | TGI (PC-3 prostate): > 50000 nM | GI50 (RPMI-8226 leukemia): 589 nM | TGI (RPMI-8226 leukemia): 2400 nM | GI50 (RXF 393 renal): 1270 nM | TGI (RXF 393 renal): 4020 nM | GI50 (SF-268 CNS): 1380 nM | TGI (SF-268 CNS): > 50000 nM | GI50 (SF-295 CNS): 1150 nM | TGI (SF-295 CNS): 3210 nM | GI50 (SF-539 CNS): 1690 nM | TGI (SF-539 CNS): 13800 nM | GI50 (SK-MEL-2 melanoma): 797 nM | TGI (SK-MEL-2 melanoma): 3070 nM | GI50 (SK-MEL-28 melanoma): 1190 nM | TGI (SK-MEL-28 melanoma): 8200 nM | GI50 (SK-MEL-5 melanoma): 562 nM | TGI (SK-MEL-5 melanoma): 1440 nM | GI50 (SK-OV-3 ovarian): 1270 nM | TGI (SK-OV-3 ovarian): > 50000 nM | GI50 (SN12C renal): 1030 nM | TGI (SN12C renal): 4290 nM | GI50 (SNB-19 CNS): 1610 nM | TGI (SNB-19 CNS): > 50000 nM | GI50 (SNB-75 CNS): 775 nM | TGI (SNB-75 CNS): 2540 nM | GI50 (SR leukemia): 1870 nM | TGI (SR leukemia): > 50000 nM | GI50 (SW-620 colon): 1770 nM | TGI (SW-620 colon): > 50000 nM | GI50 (T-47D breast): 418 nM | TGI (T-47D breast): 3640 nM | GI50 (TK-10 renal): 1610 nM | TGI (TK-10 renal): 16900 nM | GI50 (U251 CNS): 1530 nM | TGI (U251 CNS): > 50000 nM | GI50 (UACC-257 melanoma): 730 nM | TGI (UACC-257 melanoma): 4040 nM | GI50 (UACC-62 melanoma): 519 nM | TGI (UACC-62 melanoma): 1670 nM | GI50 (UO-31 renal): 1100 nM | TGI (UO-31 renal): 4670 nM
